Test results reported in US20100068204A1, “4-ARYLOXYQUINOLIN-2(1H)-ONES AS MTOR KINASE AND PI3 KINASE INHIBITORS, FOR USE AS ANTI-CANCER AGENTS” (Wyeth, priority 2008, published 2010).

Legend:
[1] = molecular target: human TOR (FLAG-TOR) (Homo sapiens, UniProt P42345); test: mTOR enzyme assay (DELFIA format, purified enzyme); assay type: biochemical; conditions: 800 ng/ml FLAG-TOR, 100 μM ATP, 1.25 μM His6-S6K; read-out: mTOR Kinase IC50
[2] = test system: LNCap prostate tumor cells; test: In vitro cell growth assay (MTS), LNCap; assay type: cell-based, human; conditions: three days after drug treatment
Experimental: (§1) Cell lines used were human adenocarcinoma (LoVo), […], prostate (LNCap), breast (MDA468, MCF7), colon (HCT116), renal (HTB44 A498), and ovarian (OVCAR3) tumor cell lines. The tumor cells were plated in 96-well culture plates at approximately 3000 cells per well. One day following plating, various concentrations of inhibitors in DMSO were added to cells (final DMSO concentration in cell assays was 0.25%). Three days after drug treatment, viable cell densities were determined by cell mediated metabolic conversion of the dye MTS, a well-established indicator of cell proliferation in vitro. Cell growth assays were performed using kits purchased from Promega Corporation (Madison, Wis.), following the protocol provided by the vendor. Measuring absorbance at 490 nm generated MTS assay results. Compound effect on cell proliferation was assessed relative to untreated control cell growth.

[3] = molecular target: PI3Kα (Homo sapiens, UniProt P42336); test: PI3Kα fluorescence polarization assay; assay type: biochemical; conditions: 20 μM PIP2, 25 μM ATP
Sequence of PI3Kα (P42336 whole entry, species assumed): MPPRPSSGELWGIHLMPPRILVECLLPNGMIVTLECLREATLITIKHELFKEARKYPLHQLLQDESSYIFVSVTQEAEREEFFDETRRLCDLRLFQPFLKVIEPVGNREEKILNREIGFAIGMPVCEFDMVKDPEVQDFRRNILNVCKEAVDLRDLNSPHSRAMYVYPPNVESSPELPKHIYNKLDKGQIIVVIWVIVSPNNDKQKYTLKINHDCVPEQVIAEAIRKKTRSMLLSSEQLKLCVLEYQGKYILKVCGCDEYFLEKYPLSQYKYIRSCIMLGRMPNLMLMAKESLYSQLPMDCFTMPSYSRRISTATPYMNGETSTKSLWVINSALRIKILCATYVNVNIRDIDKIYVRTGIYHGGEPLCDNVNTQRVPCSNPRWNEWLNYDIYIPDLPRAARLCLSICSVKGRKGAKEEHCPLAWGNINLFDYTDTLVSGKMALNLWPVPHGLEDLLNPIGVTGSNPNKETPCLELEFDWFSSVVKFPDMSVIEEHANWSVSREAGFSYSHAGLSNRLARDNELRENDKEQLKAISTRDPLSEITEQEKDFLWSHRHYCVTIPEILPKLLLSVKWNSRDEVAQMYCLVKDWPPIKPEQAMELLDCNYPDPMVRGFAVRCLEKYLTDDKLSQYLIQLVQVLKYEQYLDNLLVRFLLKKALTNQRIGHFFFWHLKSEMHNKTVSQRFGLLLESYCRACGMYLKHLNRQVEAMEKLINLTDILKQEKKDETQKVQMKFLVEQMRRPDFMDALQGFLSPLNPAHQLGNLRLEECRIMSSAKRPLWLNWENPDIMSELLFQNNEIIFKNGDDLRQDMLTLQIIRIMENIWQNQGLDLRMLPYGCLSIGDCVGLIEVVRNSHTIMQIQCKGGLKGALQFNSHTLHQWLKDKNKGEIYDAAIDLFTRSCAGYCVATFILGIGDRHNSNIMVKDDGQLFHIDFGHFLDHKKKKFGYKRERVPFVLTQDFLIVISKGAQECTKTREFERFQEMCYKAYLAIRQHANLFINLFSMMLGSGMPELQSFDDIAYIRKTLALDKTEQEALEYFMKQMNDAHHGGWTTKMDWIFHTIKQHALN
Sequence of PI3Kα (P27986 whole entry partner, species assumed): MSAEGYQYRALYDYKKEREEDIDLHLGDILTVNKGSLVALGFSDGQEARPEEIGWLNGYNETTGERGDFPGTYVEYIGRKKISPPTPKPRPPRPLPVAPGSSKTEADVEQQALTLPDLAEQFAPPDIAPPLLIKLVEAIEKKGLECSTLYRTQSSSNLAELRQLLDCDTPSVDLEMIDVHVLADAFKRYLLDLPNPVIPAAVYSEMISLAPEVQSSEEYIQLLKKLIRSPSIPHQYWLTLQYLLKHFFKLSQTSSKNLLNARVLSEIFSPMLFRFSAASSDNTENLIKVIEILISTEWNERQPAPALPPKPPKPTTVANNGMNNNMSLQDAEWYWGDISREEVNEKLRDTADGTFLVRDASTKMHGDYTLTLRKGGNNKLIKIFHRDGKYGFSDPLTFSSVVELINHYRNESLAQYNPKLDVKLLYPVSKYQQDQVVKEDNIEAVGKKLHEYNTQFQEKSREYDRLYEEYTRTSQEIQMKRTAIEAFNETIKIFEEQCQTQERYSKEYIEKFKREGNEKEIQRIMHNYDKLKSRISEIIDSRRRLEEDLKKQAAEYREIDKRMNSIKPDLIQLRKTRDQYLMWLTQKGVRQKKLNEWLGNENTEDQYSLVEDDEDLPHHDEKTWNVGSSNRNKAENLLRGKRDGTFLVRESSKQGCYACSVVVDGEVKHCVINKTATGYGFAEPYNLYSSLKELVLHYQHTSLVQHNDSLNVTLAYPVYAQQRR
Experimental: The reaction buffer was 20 mM HEPES pH7.5, 2 mM MgCl2, 0.05% CHAPS, and 0.01% βME (added fresh). The substrate solution was 40 μM PIP2 (diC8, Echelon, Salt Lake City Utah cat #P-4508, 1 mM in water) and 50 μM ATP in the reaction buffer. Nunc 384-well black polypropylene fluorescent plates were used for PI3K assays. The assay is run by putting 9.5 μl of freshly diluted enzyme in the reaction buffer per well, adding 0.5 μl of diluted drug or DMSO, and mixing. Then 10 μl of the substrate solution is added to each well to start the reaction. A final concentration of 20 μM PIP2 and 25 μM ATP in the reaction was used. Reactions were allowed to proceed for 30-60 minutes at room temperature. After 30-60 minutes, 20 μl of a solution of 10 nM TAMRA detector (Red detector probe-Echelon) and 2.5 uM of GST-murine GRP (1.5 mg/ml in 17% glycerol) was added per well to stop the reaction. The resulting solution was mixed well and allowed to stand for 90-110 minutes before reading plate. Assay Plates were read on Perkin-Elmer Envision plate readers with appropriate filters for Tamra [BODIPY-TMRI(1,3,4,5)P4]. Data obtained were used to calculate enzymatic activity and enzyme inhibition by inhibitor compounds. It is important to keep Red probe solutions dark. This procedure is adapted from Echelon Biosciences Inc procedure for their PI3-Kinase fluorescence polarization activity Assay kit Product number K-1100.

[4] = test system: MDA468 breast tumor cells; test: In vitro cell growth assay (MTS), MDA468; assay type: cell-based, human; conditions: three days after drug treatment
Experimental: as §1

Compound	IC50 [1] [nM]	IC50 ([2]; Homo sapiens, LNCaP, 72 h) [µM]	IC50 [3] [µM]	IC50 ([4]; Homo sapiens, 72 h) [µM]	IC50 [2] [µM]	IC50 [4] [µM]
Cn1cc(-c2ccc3c(Oc4ccccc4)cc(=O)[nH]c3c2)cn1	> 20000	> 60	4.63	> 60		
O=c1cc(Oc2cccc(NCc3ccc(F)nc3)c2)c2ccccc2[nH]1 [drawing 218]					13	50
O=C(Cc1cccs1)Nc1ccc2[nH]c(=O)cc(Oc3ccccc3)c2c1	14500	22	0.383	35		
O=c1cc(Oc2cccc(-c3cccs3)c2)c2ccccc2[nH]1	> 20000	> 60	2.69	3.8		
O=c1cc(Oc2cccc(-c3ccc(N4CCNCC4)nc3)c2)c2ccccc2[nH]1	150	4.8	> 10	7		
COC[C@@H]1CCCN1CCNc1ccc(-c2cccc(Oc3cc(=O)[nH]c4ccccc34)c2)cc1	130	5	11			
COc1ncccc1CNc1cccc(Oc2cc(=O)[nH]c3ccccc23)c1	400	8.5	6.74	60		
O=c1cc(Oc2cccc(NCc3cccnc3)c2)c2ccccc2[nH]1	80	3.2	> 10	9.77		
CN1CCN(c2ccc(Oc3cc(=O)[nH]c4ccccc34)cc2)CC1	7000	17	> 10	40		
O=c1cc(Oc2cccc(NCc3ccccc3)c2)c2ccccc2[nH]1	140	6	3.78			
CC(C)(C)CNc1ccc(CNc2cccc(Oc3cc(=O)[nH]c4ccccc34)c2)cn1	350	7	2.09	12		
O=c1cc(Oc2ccccc2)c2cc(-c3ccccc3)ccc2[nH]1	8200		8.23			
O=c1cc(Oc2ccccc2)c2ccc(Cl)cc2[nH]1	> 20000		0.308			
CN(C)CCCN1CCN(c2cccc(Oc3cc(=O)[nH]c4ccccc34)c2)CC1	720	7		10.5		
CN1CCN(c2cccc(Oc3cc(=O)[nH]c4ccccc34)c2)CC1 [drawing 359]	370	0.62	10.3			
CC(C)(C)OC(=O)Nc1ccc(CNc2cccc(Oc3cc(=O)[nH]c4ccccc34)c2)cn1	420	12		60		
CC(=O)Nc1ccc(Oc2cc(=O)[nH]c3ccccc23)cc1	6000		7.28			
O=c1cc(Oc2cccc(OCc3ccccc3)c2)c2ccccc2[nH]1 [drawing 351]		> 60	4.15	> 60		
Nc1ncccc1CNc1cccc(Oc2cc(=O)[nH]c3ccccc23)c1	70	4	> 10			
CC(C)(C)CNc1ncccc1CNc1cccc(Oc2cc(=O)[nH]c3ccccc23)c1	160	4.2		10		
O=c1cc(Oc2cccc(NCc3ccsc3)c2)c2ccccc2[nH]1	120	35	> 10			
CN1CCC(N(C)c2cccc(-c3cccc(Oc4cc(=O)[nH]c5ccccc45)c3)c2)CC1	330	3	8.31			
O=c1cc(Oc2cccc(NCc3ccc(F)nc3)c2)c2ccccc2[nH]1 [drawing 208]			9.54		4	11
O=c1cc(Oc2ccccc2)c2cc(Br)ccc2[nH]1	> 20000		> 10			
O=c1cc(Oc2ccccn2)c2ccccc2[nH]1 [drawing 389]	9700	> 60	8.74			
O=c1cc(Oc2ccccc2)c2cc(-c3ccncc3)ccc2[nH]1		60	3.94	60		
O=c1cc(Oc2cccc(NCc3ccc(-n4ccnc4)cc3)c2)c2ccccc2[nH]1	80	4	> 10			
